Measurements: patent US9630961B2, “Arginine methyltransferase inhibitors and uses thereof” (Epizyme, Inc., priority 2013, dated 2017)

biological target: T1, PRMT8 (Homo sapiens, UniProt Q9NR22); assay: PRMT8 Biochemical Assay (3H-SAM Flashplate, peptide substrate); settings: 30 min preincubation, room temperature
T1 construct: Full-length human PRMT8 (NM_019854.4) isoform 1 transcript clone; made in house; host or cells: E. coli BL21(DE3) Gold
Text: S-adenosylmethionine (SAM), S-adenosylhomocysteine (SAH), bicine, Tween20, dimethylsulfoxide (DMSO), bovine skin gelatin (BSG), isopropyl-β-D-thiogalactopyranoside (IPTG), and Tris(2-carboxyethyl)phosphine hydrochloride solution (TCEP) were purchased from Sigma-Aldrich at the highest level of purity possible. ^3H-SAM was purchase from American Radiolabeled Chemicals with a specific activity of 80 Ci/mmol. 384-well streptavidin Flashplates were purchased from PerkinElmer.
Peptide representative of human histone H4 residues 31-45 was synthesized with an N-terminal linker-affinity tag motif and a C-terminal amide cap by 21st Century Biochemicals. The peptide was purified by high-performance liquid chromatography (HPLC) to greater than 95% purity and confirmed by liquid chromatography mass spectrometry (LC-MS). The sequence was Biot-Ahx-[…]-amide (SEQ ID NO.:8).
The resulting construct encodes an N-terminal GST tag and a thrombin cleavage sequence ([…] […] […] […]) (SEQ ID NO.:9) fused directly to Met 1 of PRMT8.
E. coli (BL21(DE3) Gold, Stratagene) made competent by the CaCl2 method were transformed with the PRMT8 construct and ampicillin selection. Protein over-expression was accomplished by growing the PRMT8 expressing E. coli clone and inducing expression with 0.3 mM IPTG at 16° C. The culture was grown for 12 hours, harvested by centrifugation, and stored at −80° C. for purification.
The column was washed with 50 mM phosphate buffer, 100 mM NaCl, 5% glycerol, 5 mM (3-mercaptoethanol, pH 7.8 and PRMT8 was eluted by 100 mM phosphate in the same buffer. Protein was concentrated and buffer was exchanged to 50 mM Tris, 300 mM NaCl, 10% glycerol, 5 mM β-mercaptoethanol, pH 7.8 by ultrafiltration. The purity of recovered protein was 89%.
General Procedure for PRMT8 Enzyme Assays on Peptide Substrates.
The assays were all performed in a buffer consisting of 20 mM Bicine (pH=7.6), 1 mM TCEP, 0.005% BSG, and 0.002% Tween 20, prepared on the day of use. Compounds in 100% DMSO (1 ul) were spotted into a polypropylene 384-well V-bottom plates (Greiner) using a Platemate Plus outfitted with a 384-channel head (Thermo Scientific). DMSO (1 ul) was added to Columns 11, 12, 23, 24, rows A-H for the maximum signal control and 1 ul of SAH, a known product and inhibitor of PRMT8, was added to columns 11, 12, 23, 24, rows I-P for the minimum signal control. A cocktail (40 ul) containing the PRMT8 enzyme was added by Multidrop Combi (Thermo-Fisher). The compounds were allowed to incubate with PRMT8 for 30 min at room temperature, then a cocktail (10 ul) containing ^3H-SAM and peptide was added to initiate the reaction (final volume=51 ul). The final concentrations of the components were as follows: PRMT8 was 1.5 nM, ^3H-SAM was 50 nM, non-radiolabeled SAM was 550 nM, peptide was 150 nM, SAH in the minimum signal control wells was 1 mM, and the DMSO concentration was 2%. The assays were stopped by the addition of non-radiolabeled SAM (10 ul) to a final concentration of 400 uM, which dilutes the ^3H-SAM to a level where its incorporation into the peptide substrate is no longer detectable. 50 ul of the reaction in the 384-well polypropylene plate was then transferred to a 384-well Flashplate and the biotinylated peptides were allowed to bind to the streptavidin surface for at least 1 hour before being washed once with 0.1% Tween20 in a Biotek ELx405 plate washer. The plates were then read in a PerkinElmer TopCount plate reader to measure the quantity of ^3H-labeled peptide bound to the Flashplate surface, measured as disintegrations per minute (dpm) or alternatively, referred to as counts per minute (cpm).
Where dpm=disintegrations per minute, cmpd=signal in assay well, and min and max are the respective minimum and maximum signal controls.
Where top and bottom are the normally allowed to float, but may be fixed at 100 or 0 respectively in a 3-parameter fit. […]

T1 sequence (Q9NR22 whole entry, canonical isoform): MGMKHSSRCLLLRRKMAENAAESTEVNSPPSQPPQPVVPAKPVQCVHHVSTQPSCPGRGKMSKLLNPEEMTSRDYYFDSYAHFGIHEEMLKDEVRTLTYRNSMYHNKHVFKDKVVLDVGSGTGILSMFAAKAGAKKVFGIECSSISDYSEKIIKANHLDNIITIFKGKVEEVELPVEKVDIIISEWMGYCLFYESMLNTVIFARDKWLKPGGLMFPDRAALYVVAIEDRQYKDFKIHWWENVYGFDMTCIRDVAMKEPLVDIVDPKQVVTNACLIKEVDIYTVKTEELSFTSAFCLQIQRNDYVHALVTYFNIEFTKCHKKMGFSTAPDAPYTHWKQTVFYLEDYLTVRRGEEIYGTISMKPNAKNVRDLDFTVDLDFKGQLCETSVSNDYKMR

SMILES	IC50
CN(CCN)Cc1c[nH]nc1-c1cccs1 [Compound 5]	3.01 to 10 µM
CN(CCN)Cc1c[nH]nc1-c1ccco1 [Compound 6]	3.01 to 10 µM
CN(CCN)Cc1c[nH]nc1-c1ccc2scnc2c1 [Compound 9]	0.101 to 1 µM
Cc1noc(C)c1-c1n[nH]cc1CN(C)CCN [Compound 10]	≥ 10 µM
CN(CCN)Cc1c[nH]nc1-c1cnc2[nH]ccc2c1 [Compound 13]	0.101 to 1 µM
CN(CCN)Cc1c[nH]nc1-c1cc[nH]n1 [Compound 14]	≥ 10 µM
CN(CCN)Cc1c[nH]nc1-c1ccc2ncnn2c1 [Compound 20]	1.01 to 3 µM
CN(CCN)Cc1c[nH]nc1-c1ccc2nccn2c1 [Compound 21, N^1-((3-(imidazo[1,2-a]pyridin-6-yl)-1H-pyrazol-4-yl)methyl)-N^1-methylethane-1,2-diamine]	0.101 to 1 µM
CN(CCN)Cc1c[nH]nc1-c1ccc2[nH]ncc2c1 [Compound 27, N^1-((3-(1H-indazol-5-yl)-1H-pyrazol-4-yl)methyl)-N^1-methylethane-1,2-diamine]	0.101 to 1 µM
CN(CCN)Cc1c[nH]nc1-c1cnc(C2CC2)nc1 [Compound 28]	1.01 to 3 µM
CN(CCN)Cc1c[nH]nc1-c1ccc[nH]1 [Compound 29]	3.01 to 10 µM
CN(CCN)Cc1c[nH]nc1-c1cccc2[nH]ncc12 [Compound 30]	3.01 to 10 µM

Further lines, results first:

IC50	SMILES
1.01 to 3 µM	CN(CCN)Cc1c[nH]nc1-c1ccsc1 [Compound 3]
1.01 to 3 µM	CN(CCN)Cc1c[nH]nc1-c1cncnc1 [Compound 4]
1.01 to 3 µM	CN(CCN)Cc1c[nH]nc1-c1ccoc1 [Compound 7]
3.01 to 10 µM	CN(CCN)Cc1c[nH]nc1-c1cnn(C)c1 [Compound 8]
1.01 to 3 µM	COc1ncc(-c2n[nH]cc2CN(C)CCN)cn1 [Compound 11]
1.01 to 3 µM	CN(CCN)Cc1c[nH]nc1-c1cn[nH]c1 [Compound 12]
3.01 to 10 µM	CN(CCN)Cc1c[nH]nc1-c1ccnn1C [Compound 15]
0.101 to 1 µM	CCn1cc(-c2n[nH]cc2CN(C)CCN)cn1 [Compound 16]
0.101 to 1 µM	CN(CCN)Cc1c[nH]nc1-c1cnn(-c2ccccc2)c1 [Compound 17]
1.01 to 3 µM	CN(CCN)Cc1c[nH]nc1-c1cnn(CCO)c1 [Compound 18]
0.101 to 1 µM	CN(CCN)Cc1c[nH]nc1-c1ccc2cnn(C)c2c1 [Compound 19, N^1-methyl-N^1-((3-(1-methyl-1H-indazol-6-yl)-1H-pyrazol-4-yl)methyl)ethane-1,2-diamine]
0.101 to 1 µM	CC(C)n1cc(-c2n[nH]cc2CN(C)CCN)cn1 [Compound 22]
0.101 to 1 µM	CC(C)Cn1cc(-c2n[nH]cc2CN(C)CCN)cn1 [Compound 23, N^1-((2′-isobutyl-3,4′-bi(1H-pyrazol)-4-yl)methyl)-N^1-methylethane-1,2-diamine]
0.101 to 1 µM	CN(CCN)Cc1c[nH]nc1-c1cnn(Cc2ccccc2)c1 [Compound 24, N^1-((1′-benzyl-3,4′-bi(1H-pyrazol)-4-yl)methyl)-N^1-methylethane-1,2-diamine]
